{
  "source": "paper PMC11640942",
  "about": "“The Role of Medium Polarity in the Efficiency of Albumin Binding with Hydrophobic Ligands: Experimental Studies and a Molecular Dynamics Investigation” (International Journal of Molecular Sciences, 2024)",
  "key": {"[1]": {"target": "T1, human serum albumin (HSA) (Homo sapiens, UniProt P02768)", "T1 construct": "purchased Sigma-Aldrich Chemical Co. (St. Louis, MO, USA)", "T1 sequence (P02768 25-609)": "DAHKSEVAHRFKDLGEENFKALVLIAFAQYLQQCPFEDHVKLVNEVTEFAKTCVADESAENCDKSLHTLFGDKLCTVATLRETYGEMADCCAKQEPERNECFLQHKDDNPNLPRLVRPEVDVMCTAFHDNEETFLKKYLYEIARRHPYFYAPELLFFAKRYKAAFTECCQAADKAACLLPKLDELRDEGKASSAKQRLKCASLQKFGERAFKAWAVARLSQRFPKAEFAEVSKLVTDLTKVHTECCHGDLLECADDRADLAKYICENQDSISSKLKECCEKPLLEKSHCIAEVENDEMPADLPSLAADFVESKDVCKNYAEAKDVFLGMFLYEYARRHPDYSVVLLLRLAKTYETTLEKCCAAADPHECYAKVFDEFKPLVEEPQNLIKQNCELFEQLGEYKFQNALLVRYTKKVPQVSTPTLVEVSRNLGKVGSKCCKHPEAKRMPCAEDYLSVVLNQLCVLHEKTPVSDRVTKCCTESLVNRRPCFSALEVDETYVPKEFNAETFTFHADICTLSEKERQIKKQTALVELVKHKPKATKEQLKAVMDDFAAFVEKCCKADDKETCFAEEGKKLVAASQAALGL", "experiment": "Binding constants of DPH and OG with HSA by increase in the probe's fluorescence (titration with HSA)", "procedure": "The slit widths were set at 10 nm for both excitation and emission wavelengths, and a 3 mL quartz cuvette with a 10 mm path length and that was magnetically stirred was used during the measurements. The experiments were performed in pure water or solutions containing 1.0 mol L^−1 NaCl, 10 and 20% (w/w) of 1,4-dioxane. […] After each addition, the mixtures were incubated for 2 min before the fluorescence measurements. Equation (2) was applied to determine the binding constant. […] The association constant (Ka) was calculated as 1/Kd. The same experimental protocol was used to determine the binding constant with OG. In this case, the fixed amount of OG was 5.0 µmol L^−1 and HSA 0–25.0 µmol L^−1. The excitation was set at 305 nm, and the emission was 320 to 450 nm. The non-linear fitting was obtained using the GraphPad Prism version 8.00 for Windows (GraphPad Software, San Diego, CA, USA). (2) F−F0/F∞−F0=L+[P]+Kd−L+[P]+Kd)^2−4[L][P]/2[L]"}, "[2]": {"target": "T1, human serum albumin (HSA)", "experiment": "Time-resolved fluorescence (average lifetime) of DPH, free and complexed with HSA", "procedure": "The measurements were performed using a mini-tau filter-based fluorescence lifetime spectrometer coupled to a Time-Correlated Single Photon Counting (TCSPC) system (Edinburgh Instruments, Livingston, UK). The excitation was performed using a 370 ± 10 nm picosecond pulsed laser, and the emission was using a […] interference filter. The fluorescence decays were fitted using the multi-exponential decay model, Equation (5), and the average lifetime <τ> was calculated using Equation (6). The quality of the fit was assessed by χ^2 values and residuals. […] (5) IT=∑i=1nfie^−T/τi (6) <τ>=∑i=1nfiτi"}, "[3]": {"settings": "cited from earlier work"}, "[4]": {"settings": "cited from earlier work", "remark": "listed apart in the source"}, "[5]": {"target": "T1, human serum albumin (HSA)", "experiment": "Binding of quercetin or rutin with HSA by quenching of the protein's intrinsic fluorescence", "settings": "pure water vs 20% 1,4-dioxane, fit to Equation (3)", "procedure": "The interactions between HSA and quercetin or rutin were evaluated by quenching the intrinsic fluorescence of the protein. The excitation was set at 295 nm, and the emission at 310 to 410 nm. […] After each addition of the ligands, the mixtures were incubated for 2 min before the fluorescence measurements. […] Since a 1:1 complex was assumed, n was set as 1. Therefore, Kd and Φ were treated as the fitting parameters in the non-linear least-squares analysis. Before determining the binding constants, the fluorescent intensities were corrected for the inner filter effect (Equation (4)) caused by the attenuation of the excitation and emission signals provoked by the light absorption of the flavonoids. Fcorr and Fobs are the corrected and observed fluorescence. Abex and Abem are the absorptions of the mixture at excitation and emission wavelength, respectively. The absorbance spectra were measured using a Perkin Elmer Lambda 35 UV-visible spectrophotometer (Shelton, CT, USA), and the fluorescence spectra were obtained using a Perkin Elmer LS 55 spectrofluorometer (Shelton, CT, USA). (3) Fratio=1-Φ[([…])/2nP0] (4) Fcorr=Fobs×10^Abex+Abem/2"}, "[6]": {"settings": "1,4-dioxane 0% (pure water), 25 °C, fit to Equation (2), read-out: association constant Ka (converted)"}, "[7]": {"settings": "1,4-dioxane 20% w/w, 25 °C, fit to Equation (2), read-out: association constant Ka (converted)"}},
  "note": "Where two headings read alike, the source gives them in different places.",
  "data": [
    {"smiles": "C(=CC=Cc1ccccc1)C=Cc1ccccc1", "note": "[DPH, 1,6-diphenyl-1,3,5-hexatriene]", "values": [
      {"measurement": "Kd", "setting": "[1]; [6]", "value": 0.505, "unit": "µM"},
      {"measurement": "Kd", "setting": "[1]; 1,4-dioxane 10% w/w, 25 °C, fit to Equation (2), read-out: association constant Ka (converted)", "value": 1.89, "unit": "µM"},
      {"measurement": "Kd", "setting": "[1]; [7]", "value": 5.88, "unit": "µM"},
      {"measurement": "HSA concentration needed to reach saturation", "setting": "[1]; 1,4-dioxane (20%)", "value": 10, "unit": "µM"},
      {"measurement": "Kd", "setting": "[1]; Figure 4, printed as (10%) 1,4-dioxane, read-out: Ka (means and SD of triplicates) (converted)", "value": 2.22, "unit": "µM"},
      {"measurement": "Kd", "setting": "[1]; Figure 4, printed as (20%) 1,4-dioxane, read-out: Ka (means and SD of triplicates) (converted)", "value": 0.485, "unit": "µM"},
      {"measurement": "Kd", "setting": "[1]; NaCl 1.0 mol L^−1 (dielectric constant 69.3), read-out: binding constant Ka (converted)", "value": 4.35, "unit": "µM"},
      {"measurement": "lower HSA concentration at saturation when the solvent was absent", "setting": "[1]; no solvent vs 1,4-dioxane", "value": 5, "unit": "fold"},
      {"measurement": "HSA concentration needed to reach saturation", "setting": "[1]; pure water", "value": 2.0, "unit": "µM"},
      {"measurement": "Kd", "setting": "[1]; pure water (dielectric constant 80.3), NaCl comparison experiment, read-out: binding constant Ka (converted)", "value": 1.01, "unit": "µM"},
      {"measurement": "average fluorescence lifetime", "setting": "[2]; 20% 1,4-dioxane with HSA added", "value": 7.1, "unit": "nanoseconds"},
      {"measurement": "average fluorescence lifetime", "setting": "[2]; 20% 1,4-dioxane, no protein", "value": 2.6, "unit": "nanoseconds"},
      {"measurement": "average fluorescence lifetime", "setting": "[2]; pure 1,4-dioxane", "value": 7.8, "unit": "nanoseconds"}
    ]},
    {"smiles": "CCCCCCCCOC(=O)c1cc(O)c(O)c(O)c1", "note": "[OG, octyl gallate]", "values": [
      {"measurement": "Kd", "setting": "[1]; [6]", "value": 0.192, "unit": "µM"},
      {"measurement": "Kd", "setting": "[1]; [7]", "value": 4.55, "unit": "µM"},
      {"measurement": "increase of binding constant in pure water compared to 1,4-dioxane", "setting": "[1]; pure water vs 20% 1,4-dioxane", "value": 25, "unit": "fold"}
    ]},
    {"smiles": "O=c1c(O)c(-c2ccc(O)c(O)c2)oc2cc(O)cc(O)c12", "note": "[quercetin]", "values": [
      {"measurement": "water solubility", "setting": "[3]", "value": 0.06, "unit": "mg/mL"},
      {"measurement": "logP", "setting": "[4]", "value": 0.35},
      {"measurement": "effect of 1,4-dioxane on binding strength", "setting": "[5]", "value": "decreased"}
    ]},
    {"smiles": "C[C@@H]1O[C@@H](OC[C@H]2O[C@@H](Oc3c(-c4ccc(O)c(O)c4)oc4cc(O)cc(O)c4c3=O)[C@H](O)[C@@H](O)[C@@H]2O)[C@H](O)[C@H](O)[C@H]1O", "note": "[rutin]", "values": [
      {"measurement": "logP", "setting": "[4]", "value": "−2.28"},
      {"measurement": "effect of 1,4-dioxane on binding strength", "setting": "[5]", "value": "not"}
    ]}
  ]
}
